Data published in patent US11851670B2, “Nucleic acid constructs encoding reprogramming factors linked by self-cleaving peptides” (Whitehead Institute for Biomedical Research, priority 2008, dated 2023).

What was measured:
NGFP3 secondary MEFs = assay: Effect of drugs on dox-induced reprogramming of secondary MEFs (GFP+ colony count); type: cell-based, mouse; details: dox plus 1 μM compound for two 48 h periods
Source text: We also tested whether the secondary cells could be used to assess the effect of drugs on the efficiency of reprogramming. For this we explored the effects of the DNA demethylating compound 5-Aza-deoxycytidine (5-Aza) and the histone deacetylase inhibitor trichostatin A (TSA). Because of their action on chromatin modifications both small molecules are candidates to improve the 5reprogramming efficiency.
For MEF isolation, chimeric embryos were isolated at E13.5 and the head and internal (including reproductive) organs were removed. Remaining tissue was physically dissociated and incubated in trypsin at 37° C. for 20 minutes, after which cells were resuspended in MEF media containing puromycin (2 μg/mL) and expanded for two passages prior to freezing. Secondary MEFs used for the described experiments were thawed and experiments plated 1-2 passages after thawing. Kinetic experiments (FIG. 2) were performed by plating 4×10^4 secondary MEFs per well in 6 well plates and plates were stained or analyzed at the indicated times. Cell density experiments were performed in 12 well plates and GFP+ iPS colonies were scored 4 weeks after dox induction. Single cell efficiency experiments were performed by plating single secondary MEFs onto a layer of wildtype feeder MEFS in 96 well plates prior to dox induction (using limiting dilutions, which were confirmed by eye in replicate plates lacking feeder MEFs). iPS formation was scored 4 weeks later. Representative experiments from 2-3 biological replicates are shown. For 5-Aza and TSA experiments, […] secondary MEFs were plated in 6 well plates (approx 100 cells/mm^2) and pretreated with ES cell media containing 5-Aza (1 μM) or TSA (1 μM) for 48 h. After 48 h, secondary MEFs were cultured in ES cell media plus dox lacking 5-Aza or TSA. MEFS were exposed to 5-Aza or TSA for a second 48 h period between days 8-10 after induction, followed by culture with dox only until scoring GFP+ colonies on day 21.

mouse fibroblasts = details: treatment decreasing global DNA methylation; cited from earlier work
huES cells = details: cited from earlier work
ES cells = details: chemically defined medium, absence of LIF; cited from earlier work
SOX2-ER fusion construct = assay: Tamoxifen-dependent activation of SOX2-ER fusion construct in transduced fibroblasts; type: cell-based, human; details: cells transduced with SOX2-ER fusion construct
Source text: (a) DOX inducible lentivirus vectors: Following the same strategy as used for murine genes we have generated lentiviral vectors that transduce the human OCT4, SOX2, KLF4 and C-MYC c-DNAs either constitutively or under the control of a DOX inducible promoter [Brambrink, 2008 #6877]. To generate a DOX inducible system we infected human fibroblasts with a lentiviral vector carrying the rtTA transactivator. […] (b) Tamoxifen inducible lentivirus vectors: To enable independent inducible control of vectors we also generated OCT4, SOX2 and C-MYC estrogen receptor (ER) fusion constructs by fusing the factors to the estrogen ligand binding domain to allow for tamoxifen dependent expression [Grandori, 1996 #6505].

Nc1ncn([C@H]2C[C@H](O)[C@@H](CO)O2)c(=O)n1 [5-Aza, 5-Aza-deoxycytidine]
reprogramming efficiency (number of GFP+ colonies) (NGFP3 secondary MEFs; GFP+ colonies scored on day 21): increased the reprogramming efficiency | reprogramming efficiency (number of GFP+ colonies) (NGFP3 secondary MEFs; GFP+ colonies scored on day 21, listed as 5-Aza-deoxycytidine): substantially enhances the reprogramming efficiency | reprogramming of mouse fibroblasts (mouse fibroblasts): enhance reprogramming of mouse fibroblasts

CC(/C=C/C(=O)NO)=C\[C@@H](C)C(=O)c1ccc(N(C)C)cc1 [TSA, trichostatin A]
reprogramming efficiency (number of GFP+ colonies) (NGFP3 secondary MEFs; GFP+ colonies scored on day 21): no obvious effect on the number of colonies

C[C@@H](N)[C@H]1CC[C@H](C(=O)Nc2ccncc2)CC1 [Y-27632]
cloning efficiency (huES cells): increase cloning efficiency | dissociation-induced apoptosis (huES cells): markedly diminish dissociation-induced apoptosis

Cc1cc(Nc2ncc3c(n2)N(C)C(=O)N(c2cc(NC(=O)c4cccc(C(F)(F)F)c4)ccc2C)C3)n(C)n1 [pluripotin]
self renewal of ES cells (ES cells): sustains self renewal of ES cells

CC/C(=C(\c1ccccc1)c1ccc(OCCN(C)C)cc1)c1ccccc1 [tamoxifen]
localisation of SOX2 protein after tamoxifen addition (SOX2-ER fusion construct): translocation of the SOX2 protein from the cytoplasm to the nucleus
